Data: patent publication US12528761B2, “Thyromimetics” (Autobahn Therapeutics, Inc., priority 2020, dated 2026)

Columns and labels:
[1] = Brain levels of parent acid after dosing prodrug (FIG. 1); format: in vivo; details: compared with dosing Compound 15 itself
Source text: The acid compounds of the present invention (R^1=—OR^1c and R^1c=H) are active agonists selectively activating the TRβ receptor. The amide compounds of the present invention (R^1=—NR^1aR^1b) may act as substrates for the specific hydrolase enzyme fatty acid-amide hydrolase (FAAH), which cleaves the amide, liberating the thyromimetic. Thus, prodrug conversion to drug is enhanced in tissues that express high levels of FAAH such as the central nervous system. […] The ester compounds of the present invention (R^1=—OR^1c and R^1c≠H) are also prodrugs, typically processed through the action of esterases which may exist selectively in specific tissues.

TRβ = biological target: T1, TRβ (Homo sapiens, UniProt P10828); assay: TR reporter-gene assay (Gal4 DBD hybrid, luciferase), TRβ; format: cell-based; details: for EC50: HEK293-derived reporter cells, 24 hr treatment, read-out: TRβ EC50; for T3-SI (selectivity index, EC50 (TRα)/EC50 (TRβ)): class symbols
T1 construct: expressed in transfected cells; host or cells: HEK293
T1 sequence (P10828 217-461 limits assumed): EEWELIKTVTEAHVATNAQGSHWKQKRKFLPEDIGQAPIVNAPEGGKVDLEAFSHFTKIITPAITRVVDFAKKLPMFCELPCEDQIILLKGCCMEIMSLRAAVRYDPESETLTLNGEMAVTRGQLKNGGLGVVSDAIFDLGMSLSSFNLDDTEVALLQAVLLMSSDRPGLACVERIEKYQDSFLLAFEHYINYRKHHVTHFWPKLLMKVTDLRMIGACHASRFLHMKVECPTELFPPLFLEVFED
In short: (§1)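 HEK293 reporter cells expressing Gal4-DBD/TR ligand-binding hybrids driving firefly luciferase from a Gal4 UAS; cells pre-incubated 6 h, then treated 24 h at 37 °C in medium with 10% charcoal-stripped FBS (final DMSO 0.1–0.4%), in duplicate. Read-out was luminescence (RLU).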

TRα = biological target: T2, TRα (Homo sapiens, UniProt P10827); assay: TR reporter-gene assay (Gal4 DBD hybrid, luciferase), TRα; format: cell-based; details: HEK293-derived reporter cells, 24 hr treatment; read-out: TRα EC50
T2 construct: expressed in transfected cells; host or cells: HEK293
T2 sequence (P10827 1-410 isoform P10827-2): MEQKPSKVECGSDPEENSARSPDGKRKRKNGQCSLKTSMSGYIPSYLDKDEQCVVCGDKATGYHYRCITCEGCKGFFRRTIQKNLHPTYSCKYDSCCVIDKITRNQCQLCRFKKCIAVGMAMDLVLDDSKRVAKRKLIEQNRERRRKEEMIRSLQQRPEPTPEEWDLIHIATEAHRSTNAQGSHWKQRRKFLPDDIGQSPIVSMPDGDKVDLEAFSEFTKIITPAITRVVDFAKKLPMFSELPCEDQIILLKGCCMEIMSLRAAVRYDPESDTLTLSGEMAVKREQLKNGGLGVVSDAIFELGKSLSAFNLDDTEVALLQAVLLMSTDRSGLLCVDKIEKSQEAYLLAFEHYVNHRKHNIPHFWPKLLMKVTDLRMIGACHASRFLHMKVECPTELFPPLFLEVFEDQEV
In short: as §1

[2] = biological target: T3, recombinant human FAAH (rhFAAH) (Homo sapiens, UniProt O00519); assay: FAAH substrate evaluation (formation of acid metabolite, LC-MS/MS); format: biochemical; parameters: key: A: ke is equal to or less than 1.0; B: ke is greater than 1.0 and less than or equal to 2.5; C: ke is greater than 2.5; NC: no conversion; details: 0.5 ng/μL rhFAAH, 1 μM test compound, pH 8.0, room temperature, 0-60 minutes
T3 construct: purchased Cayman Chemical (Ann Arbor, MI, USA)
T3 sequence (O00519 1-579): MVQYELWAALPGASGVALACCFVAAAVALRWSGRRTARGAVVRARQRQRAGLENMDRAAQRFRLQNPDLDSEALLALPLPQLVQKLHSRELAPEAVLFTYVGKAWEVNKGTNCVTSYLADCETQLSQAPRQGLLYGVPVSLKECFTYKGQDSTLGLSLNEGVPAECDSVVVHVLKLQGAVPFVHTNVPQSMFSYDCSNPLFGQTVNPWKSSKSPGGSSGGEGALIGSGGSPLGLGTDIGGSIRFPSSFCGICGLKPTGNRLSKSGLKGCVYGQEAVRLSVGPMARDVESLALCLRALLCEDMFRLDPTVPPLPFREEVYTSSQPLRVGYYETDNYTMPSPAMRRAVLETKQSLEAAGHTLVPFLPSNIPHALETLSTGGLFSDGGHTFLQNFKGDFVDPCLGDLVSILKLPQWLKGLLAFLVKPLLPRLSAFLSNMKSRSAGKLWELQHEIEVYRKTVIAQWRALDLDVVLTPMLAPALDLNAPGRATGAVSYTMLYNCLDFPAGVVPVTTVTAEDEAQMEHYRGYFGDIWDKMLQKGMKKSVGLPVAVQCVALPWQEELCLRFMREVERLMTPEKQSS
In short: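 Test compound at 1 μM incubated at room temperature with 0.5 ng/μL rhFAAH, 0.1% BSA in Tris-EDTA pH 8.0; parallel incubations with 1 μM PF-3845 inhibitor. Samples quenched at 0-60 min; acid metabolite quantified by LC-MS/MS, ke taken as slope of metabolite concentration versus time.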

Row | brain levels of the parent acid Compound 15 [1] | EC50 (TRβ) | T3-SI (selectivity index, EC50 (TRα)/EC50 (TRβ)) (TRβ) | EC50 (TRα) | ke, observed rate constant for the acid metabolite formation [2] | Structure (SMILES)
1 | markedly higher brain levels | 0.1 to 1 µM | +++ (T3-SI > 30×) | > 1 µM |  | CC(C)c1cc(Cc2c(Cl)cc(CCCC(=O)O)cc2Cl)ccc1O [Compound 16, 4-(3,5-dichloro-4-(4-hydroxy-3-isopropylbenzyl)phenyl)butanoic acid]
2 |  | > 1 µM |  |  | NC | CON(C)C(=O)Cc1cc(Cl)c(Cc2ccc(O)c(C(C)C)c2F)c(Cl)c1 [Compound 105, 2-(3,5-dichloro-4-(2-fluoro-4-hydroxy-3-isopropylbenzyl)phenyl)-N-methoxy-N-methylacetamide]
3 |  | 0.1 to 1 µM | ++ (3× < T3-SI ≤ 30×) | > 1 µM | A (ke is equal to or less than 1.0) | CONC(=O)Cc1cc(Cl)c(Cc2ccc(O)c(C(C)C)c2F)c(Cl)c1 [Compound 208, 2-(3,5-dichloro-4-(2-fluoro-4-hydroxy-3-isopropylbenzyl)phenyl)-N-methoxyacetamide]
4 |  | > 1 µM | ++ (3× < T3-SI ≤ 30×) | > 1 µM | C (ke is greater than 2.5) | CNC(=O)CSCc1cc(C)c(Cc2ccc(O)c(C(C)C)c2)c(Cl)c1F [Compound 217, 2-((3-chloro-2-fluoro-4-(4-hydroxy-3-isopropylbenzyl)-5-methylbenzyl)thio)-N-methylacetamide]
5 | markedly higher brain levels |  |  |  |  | COC(=O)CCc1cc(Cl)c(Cc2ccc(O)c(C(C)c3ccc(F)cc3)c2F)c(Cl)c1 (centres unmarked) [Compound 17, methyl 3-(3,5-dichloro-4-(2-fluoro-3-(1-(4-fluorophenyl)ethyl)-4-hydroxybenzyl)phenyl)propanoate]
6 |  |  |  |  | C (ke is greater than 2.5) | CC(C)c1cc(Cc2c(Cl)cc(SCC(=O)NC3CC3)cc2Cl)ccc1O [Compound 180, N-cyclopropyl-2-((3,5-dichloro-4-(4-hydroxy-3-isopropylbenzyl)phenyl)thio)acetamide]
7 |  |  |  |  | NC | CC(C)c1c(O)ccc(Cc2c(Cl)cc(NCC(=O)N(C)C)c(F)c2Cl)c1F [Compound 166, 2-((3,5-dichloro-2-fluoro-4-(2-fluoro-4-hydroxy-3-isopropylbenzyl)phenyl)amino)-N,N-dimethylacetamide]
